We go through three compounds from US11191744B2, “Pharmaceutical active ingredient and use thereof, in particular for the prevention and treatment of metabolic disorders in humans and animals” (VALBIOTIS, priority 2017, dated 2021).

Values joined by “and” are separate entries in the source; they are usually repeats but may differ in a detail not shown here. Equal values may be shown once.

Common to all, as to assay type: in vivo
Test [1] concerns db/db mice. The test is described as follows: Fasting glycemia in db/db mice after 6 weeks of treatment. The conditions noted are these: for effect on fasting glycemia (in words): db/db mice, after 6 weeks of treatment, versus CONTROL; for Fasting glycemia after 6 weeks of treatment: male db/db mice, fasted 6 h, compositions in the diet, mean values ± SEM. Here is the method:
(§1) The composition was also compared to metformin, one of the main pharmaceutical molecules prescribed for the treatment of type 2 diabetes.
(§2) Experiments were performed on db/db mice, a model mimicking the characteristics of type 2 diabetes in humans (Roesler W J et al., Mol Cell Biochem 1990; 92(2):99-106). These mice are insulin-resistant, hypertriglyceridemic, and glucose intolerant. They very quickly develop pre-diabetes, a type 2 diabetes and then NASH.
(§3) The experimental time for the trial was […] with a 1 week run-in followed by 6 weeks of treatment. The male mice were 6 weeks old at the start of treatment. The (1S,3R,4R,5R)-3-{[(2E)-3-(3,4-dihydroxyphenyl)-2-propenoyl]oxy}-1,4,5-trihydroxycyclohexanecarboxylic acid alone, the methyl (2S,3E,4S)-4-{2-[2-(3,4-dihydroxyphenyl)ethoxy]-2-oxoethyl}-3-ethylidene-2-(β-D-glucopyranosyloxy)-3,4-dihydro-2H-pyran-5-carboxylate alone, and the mixture of these two molecules in a ratio of 1/4.65 have been tested and compared with metformin. These compositions were directly integrated into the diet of rodents, thus ensuring large-scale use, with injections, for example, intravenous, being limited to a small number given their mode of administration.
(§4) After randomization by weight and fasting glycemia, the animals were divided into the following groups: • Control (n=15): CONTROL; • Metformin (n=12, 0.2% of the diet): MET; • (1S,3R,4R,5R)-3-{[(2E)-3-(3,4-dihydroxyphenyl)-2-propenoyl]oxy}-1,4,5-trihydroxycyclohexanecarboxylic acid (n=12, 0.026% of the diet): V63X35; • The methyl (2S,3E,4S)-4-{2-[2-(3,4-dihydroxyphenyl)ethoxy]-2-oxoethyl}-3-ethylidene-2-(β-D-glucopyranosyloxy)-3,4-dihydro-2H-pyran-5-carboxylate (n=11, 0.12% of diet): V63X54; • The (1S,3R,4R,5R)-3-{[(2E)-3-(3,4-dihydroxyphenyl)-2-propenoyl]oxy}-1,4,5-trihydroxycyclohexanecarboxylic acid+methyl (2S,3E,4S)-4-{2-[2-(3,4-dihydroxyphenyl)ethoxy]-2-oxoethyl}-3-ethylidene-2-(β-D-glucopyranosyloxy)-3,4-dihydro-2H-pyran-5-carboxylate (n=11, respectively 0.026% and 0.12% of the feed): V63,000.
(§5) Experimental evaluations performed on an empty stomach (6 h) after 6 weeks of treatment were in particular concerned with: • The measurement of weight; • Measuring glycemia; • Measuring of insulinemia; • Measuring of serum triglycerides.
The synergistic effect on fasting glycemia was evaluated according to the Colby SR method described in “Calculation of the synergistic and antagonistic responses of herbicide combinations” Weeds, 1967, 15:20-22. A factor>1 indicates the existence of a synergistic effect. A factor<1 indicates the existence of an antagonist.
V63X54 represents the percent change in glycemia for the V63X54 group compared to the CONTROL group.

Test [2] deals with db/db mice. The test can be described thus: Fasting insulinemia in db/db mice after 6 weeks of treatment. The conditions noted are these: for Median values of insulinemia after 6 weeks of treatment: male db/db mice, fasted 6 h, compositions in the diet; for median insulinemia compared with CONTROL (in words): db/db mice, after 6 weeks of treatment. Here is the method:
as §1, §2
FIG. 1 illustrates the evolution of insulinemia and glycemia (glucose) over time in this model (Joost H G et al., Animal Models in Diabetes Research, Humana Press). As for humans, the rise in glycemia is initially accompanied by an increase in insulinemia (associated with insulin resistance), evidence of a pancreas still able to secrete insulin, then a decrease, reflecting functional degeneration of the pancreas, and thus progression of type 2 diabetes with the need for insulin therapy (Kobayashi K et al., Metabolism: Clinical and experimental 2,000; 49:22-31 Tao H et al Nat Med 2014; 20(11):1263-1269).
as §3, §4, §5

Test [3] concerns db/db mice. The test is described as follows: Fasting serum triglycerides in db/db mice after 6 weeks of treatment. Here is the method: as §1, §2
as §3, with “administration. […]” for “administration.”

With `CN(C)C(=N)N=C(N)N` [MET, metformin, reference compound], in the test on db/db mice [1], the “effect on fasting glycemia (in words)” value was “no effect”; the “Fasting glycemia after 6 weeks of treatment” value (“Fasting glycemia after 6 weeks” below) is 454 mg/dL and 454 ± 34 mg/dL. In addition, the “Median values of insulinemia after 6 weeks of treatment” value (“Median values of insulinemia” below) with db/db mice [2] is 21.89 ng/mL. Further, in the test on db/db mice [3] (db/db mice, after 6 weeks of treatment, versus CONTROL), the “reduction of blood triglyceride levels” value came to 35.6%. In the test on db/db mice [3] (male db/db mice, fasted 6 h, compositions in the diet, mean values ± SEM), the “Serum triglycerides after 6 weeks of treatment” value is given as 132.6 ± 7.4 mg/dL.
For the compound `O=C(/C=C/c1ccc(O)c(O)c1)O[C@@H]1C[C@](O)(C(=O)O)C[C@@H](O)[C@H]1O` [V63X35, (1S,3R,4R,5R)-3-{[(2E)-3-(3,4-dihydroxyphenyl)-2-propenoyl]oxy}-1,4,5-trihydroxycyclohexanecarboxylic acid], in the test with db/db mice [1], the “effect on fasting glycemia (in words)” value is recorded as “no effect” and the “Fasting glycemia after 6 weeks” value came out at 454 ± 34 mg/dL. Moreover, in the test on db/db mice [2], the “median insulinemia compared with CONTROL (in words)” value was “no difference” and the “Median values of insulinemia” value is 22.39 ng/mL.
`C/C=C1/[C@H](O[C@@H]2O[C@H](CO)[C@@H](O)[C@H](O)[C@H]2O)OC=C(C(=O)OC)[C@H]1CC(=O)OCCc1ccc(O)c(O)c1` [V63X54, methyl (2S,3E,4S)-4-{2-[2-(3,4-dihydroxyphenyl)ethoxy]-2-oxoethyl}-3-ethylidene-2-(β-D-glucopyranosyloxy)-3,4-dihydro-2H-pyran-5-carboxylate]: in the test on db/db mice [1], the “effect on fasting glycemia (in words)” value was “no effect” and the “Fasting glycemia after 6 weeks” value amounted to 432 ± 27 mg/dL. Moreover, in the test with db/db mice [2], the “median insulinemia compared with CONTROL (in words)” value was “no difference” and the “Median values of insulinemia” value is 25.44 ng/mL.
